Assay results as given in patent publication US5753681A, “Treatment and prophylaxis of pancreatitis” (Sankyo Company, Limited, priority 1996, dated 1998).
Read-outs that look alike come from different tables or passages of the source.

Tests used:
[1] = assay type: in vivo, Wistar-Imamichi rats; settings: 170 mg/kg/day
From the text: (§1) Since the decrease in the amount of pancreatic parenchyma resulting from chronic pancreatitis causes loss of pancreatic weight, any suppression of the decrease in the amount of pancreatic parenchyma can be used as an index for evaluating any improvement in the pancreatitis. Furthermore, since degeneration and necrosis of the pancreatic parenchyma and its replacement by connective tissue occurs in chronic pancreatitis, the seriousness of the pancreatitis can be estimated by histopathologically measuring the area over which the pancreatic parenchyma is replaced with connective tissue (known as the "cicatrized area").
Measurement of the weight of the pancreas may be carried out by conventional procedures after the experimental animals have been sacrificed by phlebotomy.
The effects of pancreatitis may be simulated, as is conventional, in experimental animals, by the administration of streptozotocin [(N-methylnitroso-carbamoyl)-D-glucosamine: R. A. Bennett et al., Cancer Res., 41, 2786-2790, (1981); a product of Sigma Chemical Company], which is capable of specifically destroying the Langerhans islet B cells and which thus induces a decrease in pancreatic weight. Streptozotocin is administered intravenously to the experimental animal, and then a powdered feed admixed with a test compound is given to a group of animals which have been dosed with streptozotocin. This group is hereafter referred to as the "treated group". Meanwhile, a powdered feed only is given to another group of animals which have been dosed with streptozotocin. This group is hereafter referred to as the "control group". Normal animals (undosed) fed with the feed only are also used as a blank group against the experimental animals (dosed with streptozotocin). After the test compounds have been administered to the animals for a predetermined period, each animal is sacrificed to measure its pancreatic weight. […]
Meanwhile, another group of rats was fed with the powdered feed F2 only. […] After a predetermined period, the rats were sacrificed and the pancreatic weight of each animal was measured.

[2] = Histopathology of pancreatic tissue of Example 2: total cross-sectional area and cicatrized area; assay type: in vivo, male WBN/Kob rats; settings: 0.2% in feed, three months
From the text: as §1
The measurement of the cicatrized area may also be carried out by conventional procedures. More specifically, male WBN/Kob rats are used as models of spontaneous chronic pancreatitis and are fed with a powdered feed admixed with a test compound. The pancreas of each animal is then totally enucleated. Its weight is measured and also the cicatrized area is measured relative to the total cross-sectional area of the pancreas tissue sliced by an image analyser.
The test animals were male WBN/Kob rats, which are commonly used as models of spontaneous chronic pancreatitis and suffer pancreatic weight loss and dysfunction of the exocrine pancreatic tissue due to degeneration and necrosis of the pancreatic parenchyma and its replacement by connective tissue [Tsuchitani et al., Laboratory Animals, 19(3), 200-207, (1985)]. Each group of test animals contained 4 animals, and the animals were used for the experiment when they had reached 12 weeks old. The animals were fed with powdered feed F2 mixed with 0.2% of troglitazone for three months. This group is hereinafter referred to as "the treated group". The average dose of the compound during this period was 140 mg/kg/day. Meanwhile, another four rats (control group) were fed with the powdered feed F2 only. After the rats had been fed with the feeds for three months, the pancreas of each animal was totally enucleated and its weight was measured.
In order to evaluate the results of Example 2 histopathologically, each pancreas used for weight measurement in Example 2 was fixed in 10% neutral formalin. It was then divided into a spleen side half and a duodenum side half, and each half was sliced at 3 mm intervals to provide cross-sectional tissue pieces. […] The total cross-sectional area of the pancreatic tissue piece on each preparation was measured using an image analyser (SPICCAII, manufactured by Olympus Optical Co., Ltd.).
In addition, the surface area of the zone which had undergone degeneration and necrosis and in which the exocrine pancreatic tissue was replaced with connective tissue (the cicatrized area) was measured using an image analyser.

[3] = Effect of long term treatment on pancreatic weight; assay type: in vivo, male WBN/Kob rats; settings: 9.5 months; for Pancreatic weight: control 804 ± 35
Protocol: (§2) The test animals were male WBN/Kob rats. Each group of test animals contained 6 animals, and the animals were used for the experiment when they had reached 12 weeks old. The animals were fed with powdered feed F2 mixed with 0.2% or 0.05% of troglitazone for 9.5 months. These groups are hereinafter referred to as "the 0.2% group" and "the 0.05% group", respectively. The average doses of the compound during this period were 120 mg/kg/day and 30 mg/kg/day, respectively. Meanwhile, another six rats (control group) were fed with the powdered feed F2 only. After the rats had been fed with the feeds for 9.5 months, each rat was decapitated and its blood was collected. The blood serum was separated and the plasma lipase level was measured using an autoanalyser (type 7250, manufactured by Hitachi Ltd.).
After the blood had been collected, the pancreas of each animal was totally enucleated and weighed.

plasma lipase = assay: Effect of long term treatment on plasma lipase activity; assay type: in vivo, male WBN/Kob rats; settings: 9.5 months; for Plasma Lipase Activity: control 33.7 ± 7.8
From the text: In pancreatitis, secretion of digestive enzymes is impaired and delivery of digestive enzymes to the duodenum is reduced. In addition, digestive enzymes leak into the blood and their level in the blood and urine increase. Accordingly, the extent of pancreatitis can be estimated by measuring the amount of digestive enzymes which have leaked into the blood (Methods of Clinical Examination: Kinbara Publisher).
The measurement of digestive enzymes may also be carried out by conventional procedures. For example, after the test drug mixed into powdered feed has been administered to male WBN/Kob rats for a definite period, the blood may be collected and the lipase activity (one of the digestive enzymes) in the plasma may be measured.
as §2

Acute toxicity = assay type: in vivo, ddY mice (male); settings: single oral dose of 300 mg/kg, observed for 5 days, three mice
Protocol: Acute toxicity was assayed by conventional procedures. […] At the end of this time, the animals were all alive. When the acute toxicities of Compounds No. 2, 3, 4 and 10 were measured in the same manner, the mice were all alive after an oral dose of 300 mg/kg or more.

[4] = 0.05% group, 30 mg/kg/day in feed
[5] = both the 0.2% group and the 0.05% group, vs. control group

With `Cc1c(C)c2c(c(C)c1O)CCC(C)(COc1ccc(CC3SC(=O)NC3=O)cc1)O2` (centres unmarked) [troglitazone, 5-[4-(6-Hydroxy-2,5,7,8-tetramethylchroman-2-ylmethoxy)benzyl]thiazolidine-2,4-dione] as the compound, how does the “Inhibition of pancreatic weight loss (in words)” value ([1]; 0.2% in feed, 14 days, vs. control group) read?
The value was “significantly inhibited the pancreatic weight loss”.

And the “Lesions such as edema in the pancreas” value ([1]; rat, in vivo)?
Its value is “no lesions such as edema”.

What about the Pancreatic weight ([1]; treated group, 0.2% in feed, 14 days, after streptozotocin 25 mg/kg i.v., normal 1333 ± 43, control 1253 ± 39, *p < 0.05 vs. control) of the same compound?
The Pancreatic weight was 1435 ± 40 mg.

And the “Cicatrized area in the exocrine pancreatic tissue” value ([2]; duodenum side half, control 10.84 ± 0.60, *p < 0.05)?
Its value is 6.76 ± 1.37 mm^2.

And the “Total cross-sectional area of pancreatic tissue piece” value ([2]; duodenum side half, control 89.5 ± 6.6)?
Its value is 132.8 ± 23.6 mm^2.

What about the “Cicatrized area in the exocrine pancreatic tissue” value ([2]; spleen side pancreatic half, control 5.95 ± 0.90, *p < 0.05) of the same compound?
The value was 3.31 ± 0.48 mm^2.

And the “Total cross-sectional area of pancreatic tissue piece” value ([2]; spleen side pancreatic half, control 150.5 ± 4.6, *p < 0.05)?
Its value is 172.6 ± 5.3 mm^2.

And the “Pancreatic weight” value [3, 4]?
Its value is 906 ± 63 mg.

And the “Pancreatic weight” value ([3]; 0.2% group, 120 mg/kg/day in feed, ***p < 0.001)?
The value was 1164 ± 52 mg.

And the “Pancreatic weight (in words)” value [3, 5]?
The value was “significant increase”.

What about the “Plasma Lipase Activity” value (plasma lipase; [4]) of the same compound?
Its value is 17.5 ± 2.2 IU/l.

What about the “Plasma Lipase Activity” value (plasma lipase; 0.2% group, 120 mg/kg/day in feed, *p < 0.05) of the same compound?
The value was 13.2 ± 1.0 IU/l.

And the “Plasma lipase activity (in words)” value (plasma lipase; [5])?
The value was “significant decrease”.

And the “Survival (acute toxicity)” value (Acute toxicity)?
Its value is “all alive”.
